Marks after values point to notes of the source that are not given here.
Assays:
[1] = test system: PC9 (Del19/T790M/C797S) cells; experiment: In vivo efficacy study, PC9 (Del19/T790M/C797S) xenograft; parameters: species or system BALB/c-nu mice; details: 21 consecutive days; for Tumor volume (mm^3): mean ± SEM; for Tolerability in mice (in words): po
Procedure: (III) In Vivo Efficacy Study Experiment
The anti-tumor activity and toxic and side effects of compound 53 and compound 27 administered orally for 21 consecutive days on PC9 (Del19/T790M/C797S) were evaluated.
SPF-grade and female BALB/c-nu mice, purchased from Beijing Vital River Laboratory Animal Technology Co., Ltd.
PC9 (Del19/T790M/C797S) cells, self-constructed by Qilu Pharmaceutical Co., Ltd.
PC9 (Del19/T790M/C797S) cells were cultured in RPMI 1640 medium containing 10% FBS at 37° C. in a 5% carbon dioxide incubator; and the cells in exponential growth phase were collected for inoculation.
Under sterile conditions, a cell suspension of in vitro cultured PC9 (Del19/T790M/C797S) was taken, centrifuged to adjust the cell concentration to 3×10^7 cells/mL, and inoculated in mice at the right side armpit (0.1 mL/mouse), and the day of inoculation was defined as day 0.
3.3 Tumor Grouping, Administration and Measurement
a. When the mean tumor volume was about 150 mm^3, 35 mice with moderate tumor volume were selected for enrollment and randomized into 5 groups according to tumor volume: G1: vehicle control group, G2: compound 53 (15 mg/kg), G3: compound 53 (60 mg/kg), G4: compound 27 (15 mg/kg) and G5: compound 27 (35 mg/kg), 7 mice/group.
b. The animals were grouped and then started to be administrated, and the volume for oral administration (po) was 10 mL/kg; the weighing was performed once daily with consecutively 21-day administration; the tumor diameters were measured 2 times a week.
c. Tumor volume (TV): tumor volumes were measured 2 times a week to observe tumor mass volume changes and growth rate. Tumor volume V=1/2×a×b^2, where a and b represent tumor long diameter and short diameter, respectively. The growth inhibition effect of the compounds on tumor tissues is evaluated by using a tumor growth inhibition TGI (%). TGI (%)=[1−(average tumor volume of a certain administration group—average tumor volume at the day of grouping in the administration group)/(average tumor volume of negative control group—average tumor volume on the day of grouping in the negative control group)]×100%. The data of the administration group and the negative control group were obtained on the same day.
d. The mice's living status, including appearance signs, general behavioral activities, mental status, food consumption, respiratory status, fecal and urinary traits, injection site conditions and other toxic manifestations, was closely observed during the course of the experiment.
e. After the endpoint was reached, the mice were euthanized, and animal carcasses were frozen and stored in a freezer and transferred to qualified medical waste treatment organization for disposal.

[2] = target: EGFR L858R/T790M/C797S (Homo sapiens (Human), UniProt P00533, C797S/L858R/T790M); experiment: In vitro enzymatic TR-FRET (HTRF KinEASE-TK) kinase assay, EGFR L858R/T790M/C797S; type: biochemical; details: kinase activity
Procedure: (I) In Vitro Enzymatic Experiment for EGFR WT and EGFR L858R/T790M/C797S
In the assay, the inhibition effect of the compound on the kinase activity of EGFR WT (wild type EGFR) and EGFR L858R/T790M/C797S was tested by adopting a time-resolved fluorescence resonance energy transfer (TR-FRET) method, and half maximal inhibitory concentration IC50 of the compound on the kinase activity of EGFR was obtained.
EGFR recombinase and EGFR L858R/T790M/C797S recombinase, purchased from Signalchem.
HTRF KinEASE-TK kit, purchased from Cisbio.
DTT, MnCl2, and MgCl2, purchased from Sigma.
ATP, purchased from Promega.
Brigatinib, purchased from Selleck.
1) 1× working solution was prepared: 5 mM MgCl2; 1 mM DTT; 1 mM MnCl2 and 1× kinase buffer (in kit).
2) […] of gradiently-diluted compound was transferred to a 384-well plate using Echo 550 (Labcyte).
3) 5 μL of 2× EGFR WT or EGFR L858R/T790M/C797S recombinase solution was added to the 384-well plate, and the plate was incubated at room temperature for 10 min.
4) 5 μL of 2× TK-substrate-biotin substrate solution (containing ATP) was added to the 384-well plate, and the plate was incubated at room temperature for 40 min.
5) 5 μL of assay solution containing Sa-XL 665 HTRF and 5 μL of TK-antibody-Cryptatewas were added to the plate, and the plate was incubated at room temperature for 1 h.
6) The fluorescence signal values at 615 nm and 665 nm were measured for each well using an Envision microplate reader (PerkinElmer).
7) The ratio of fluorescence signal values at 665 nm and 615 nm was calculated for each well.
8) Data analysis was performed using GraphPad Prism software to give the IC50 for compounds.

[3] = target: EGFR WT (wild type EGFR) (Homo sapiens (Human), UniProt P00533); experiment: In vitro enzymatic TR-FRET (HTRF KinEASE-TK) kinase assay, EGFR WT; type: biochemical; details: kinase activity, TR-FRET; read-out: EGFR (WT) IC50
Procedure, shortened: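 IC50 derived from the 665/615 nm TR-FRET ratio after 1 h with streptavidin-XL665 and Cryptate-labelled TK antibody. Kinase reaction ran 40 min at room temperature with biotin-TK substrate and ATP, following 10 min compound–enzyme preincubation. Buffer: 5 mM MgCl2, 1 mM MnCl2, 1 mM DTT.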

[4] = test system: A431 cells (EGFR WT); experiment: A431 cell proliferation inhibition assay (CellTiter-Glo); type: cell-based; details: Homo sapiens, A-431; cell proliferation, 72 h, CellTiter-Glo; read-out: A431 EGFR WT IC50
Procedure, shortened: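 CellTiter-Glo luminescence quantified growth after 72 h treatment with serially diluted compounds (final DMSO 0.1%), following a 24 h attachment period at 37° C, 5% CO2. Signal read after 30 min dark incubation at room temperature, with half-maximal growth inhibition reported as IC50.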

[5] = test system: Ba/F3_Del19/T790M/C797S cells; experiment: Ba/F3_Del19/T790M/C797S cell proliferation inhibition assay (CellTiter-Glo); type: cell-based; details: Mus musculus, BaF3; cell proliferation, 72 h, CellTiter-Glo; read-out: Ba/F3 (Del19/T790M/C797S) IC50
Procedure, shortened: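 IC50 for growth inhibition came from CellTiter-Glo chemiluminescence after a 72 h, 37° C compound exposure. Ba/F3_Del19/T790M/C797S cells were plated at 700/well, and compound was dosed in gradient with 0.1% final DMSO.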

[6] = test system: Ba/F3_L858R/T790M/C797S cells; experiment: Ba/F3_L858R/T790M/C797S cell proliferation inhibition assay (CellTiter-Glo); type: cell-based; details: Mus musculus, BaF3; cell proliferation, 72 h, CellTiter-Glo; read-out: Ba/F3 (L858R/T790M/C797S) IC50
Procedure, shortened: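 Proliferation IC50 derived from CellTiter-Glo luminescence in Ba/F3 cells expressing triple-mutant EGFR (L858R/T790M/C797S). Cells (700/well) incubated 72 h with graded compound doses at 0.1% DMSO final, 37 °C, 5% CO2; reagent developed 30 min at room temperature in the dark.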

Sequence of EGFR L858R/T790M/C797S (P00533 25-1210 T790M/C797S/L858R): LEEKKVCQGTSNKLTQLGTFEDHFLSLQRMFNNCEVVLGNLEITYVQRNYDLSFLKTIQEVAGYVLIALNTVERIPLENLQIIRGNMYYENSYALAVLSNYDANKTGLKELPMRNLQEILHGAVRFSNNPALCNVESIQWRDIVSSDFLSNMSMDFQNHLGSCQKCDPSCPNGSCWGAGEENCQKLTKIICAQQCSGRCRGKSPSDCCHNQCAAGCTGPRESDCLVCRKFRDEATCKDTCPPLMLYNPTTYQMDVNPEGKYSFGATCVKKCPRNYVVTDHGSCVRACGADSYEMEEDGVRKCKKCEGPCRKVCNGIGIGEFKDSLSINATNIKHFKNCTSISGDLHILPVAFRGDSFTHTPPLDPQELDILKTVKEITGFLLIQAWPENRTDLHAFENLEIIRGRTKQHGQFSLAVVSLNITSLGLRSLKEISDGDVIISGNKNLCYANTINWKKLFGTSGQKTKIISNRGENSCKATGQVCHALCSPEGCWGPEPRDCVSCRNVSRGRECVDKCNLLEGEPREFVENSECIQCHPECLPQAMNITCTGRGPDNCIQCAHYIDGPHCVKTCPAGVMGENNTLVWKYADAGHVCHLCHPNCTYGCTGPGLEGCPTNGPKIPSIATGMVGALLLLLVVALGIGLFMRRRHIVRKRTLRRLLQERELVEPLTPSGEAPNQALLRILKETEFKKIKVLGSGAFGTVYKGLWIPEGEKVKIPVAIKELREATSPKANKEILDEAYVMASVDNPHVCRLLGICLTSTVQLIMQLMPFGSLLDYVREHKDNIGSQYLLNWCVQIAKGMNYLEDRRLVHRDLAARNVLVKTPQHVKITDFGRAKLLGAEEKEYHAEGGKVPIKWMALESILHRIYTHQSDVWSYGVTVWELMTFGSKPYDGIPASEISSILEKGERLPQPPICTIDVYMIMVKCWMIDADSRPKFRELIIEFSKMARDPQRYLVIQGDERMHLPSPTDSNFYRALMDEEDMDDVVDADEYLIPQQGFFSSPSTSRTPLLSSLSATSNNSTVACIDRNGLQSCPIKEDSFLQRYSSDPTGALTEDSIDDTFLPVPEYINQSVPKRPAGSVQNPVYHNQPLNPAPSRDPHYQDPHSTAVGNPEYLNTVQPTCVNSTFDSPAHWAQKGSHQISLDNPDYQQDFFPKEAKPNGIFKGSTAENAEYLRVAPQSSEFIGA
Sequence of EGFR WT (wild type EGFR) (P00533 25-1210): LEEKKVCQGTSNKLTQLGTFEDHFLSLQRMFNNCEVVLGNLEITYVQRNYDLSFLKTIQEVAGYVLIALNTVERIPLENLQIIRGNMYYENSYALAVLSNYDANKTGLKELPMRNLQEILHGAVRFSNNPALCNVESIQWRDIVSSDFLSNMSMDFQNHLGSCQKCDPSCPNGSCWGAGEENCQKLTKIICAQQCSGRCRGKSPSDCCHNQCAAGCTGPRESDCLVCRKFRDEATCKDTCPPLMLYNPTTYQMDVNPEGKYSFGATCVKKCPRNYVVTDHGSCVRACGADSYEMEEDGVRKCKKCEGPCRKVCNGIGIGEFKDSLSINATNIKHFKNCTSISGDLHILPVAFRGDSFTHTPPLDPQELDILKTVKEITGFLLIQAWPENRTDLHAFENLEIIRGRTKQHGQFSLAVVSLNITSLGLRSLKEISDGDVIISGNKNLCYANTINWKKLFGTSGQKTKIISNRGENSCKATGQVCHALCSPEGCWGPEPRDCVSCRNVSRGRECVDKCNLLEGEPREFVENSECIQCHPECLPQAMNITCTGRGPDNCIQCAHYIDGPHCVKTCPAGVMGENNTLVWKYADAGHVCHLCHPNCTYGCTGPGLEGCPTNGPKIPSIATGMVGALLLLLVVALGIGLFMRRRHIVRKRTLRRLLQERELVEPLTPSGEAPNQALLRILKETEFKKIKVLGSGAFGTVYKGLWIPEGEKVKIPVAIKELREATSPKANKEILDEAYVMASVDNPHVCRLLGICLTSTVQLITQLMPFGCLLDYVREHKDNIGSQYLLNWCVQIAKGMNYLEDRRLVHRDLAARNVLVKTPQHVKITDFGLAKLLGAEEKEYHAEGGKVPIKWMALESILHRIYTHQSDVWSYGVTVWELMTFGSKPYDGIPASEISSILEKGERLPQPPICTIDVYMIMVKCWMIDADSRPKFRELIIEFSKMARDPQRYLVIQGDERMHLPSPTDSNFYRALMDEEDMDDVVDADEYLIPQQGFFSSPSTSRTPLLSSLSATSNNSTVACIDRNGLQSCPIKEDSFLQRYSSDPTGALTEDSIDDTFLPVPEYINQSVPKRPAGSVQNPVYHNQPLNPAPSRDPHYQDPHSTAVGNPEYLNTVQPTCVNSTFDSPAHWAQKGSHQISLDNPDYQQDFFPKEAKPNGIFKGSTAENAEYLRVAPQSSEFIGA

SMILES | Body weight change (%) ([1]; 15 mg/kg po) | TGI (%) ([1]; 15 mg/kg po) | Tumor volume (mm^3) ([1]; 15 mg/kg po) | Body weight change (%) ([1]; 35 mg/kg po) | TGI (%) ([1]; 35 mg/kg po) | Tumor volume (mm^3) ([1]; 35 mg/kg po, P < 0.01 vs G1) | Tolerability in mice (in words) [1] | IC50 [2] [nM] | IC50 [3] [nM] | IC50 [4] [nM] | IC50 [5] [nM] | IC50 [6] [nM] | Body weight change (%) ([1]; 60 mg/kg po) | TGI (%) ([1]; 60 mg/kg po) | Tumor volume (mm^3) ([1]; 60 mg/kg po, P < 0.01 vs G1)
COc1cc2c(cc1Nc1ncc(Br)c(Nc3ccccc3P(C)(C)=O)n1)-c1cnn(C)c1CCN2C(C)C [Compound 27] | 7.0 | 50.6 | 617.6 ± 110.7 | −1.7 | 88.1 | 253.0 ± 58.5** mm^3 | well tolerated | < 1 | 1 to 10 | 100 to 1000 | < 10 | < 10 | – | – | –
COc1cc2c(cc1Nc1ncc(Br)c(Nc3ccc4nccnc4c3NS(C)(=O)=O)n1)-c1cnn(C)c1CCN2C(C)C [Compound 53] | 0 | 55.9 | 565.8 ± 82.0 | – | – | – | well tolerated | < 1 | < 1 | 100 to 1000 | < 10 | < 10 | 6.8 | 102.0 | 117.0 ± 16.1** mm^3

From US20240034743A9, “TRICYCLIC COMPOUNDS AS EGFR INHIBITORS” (QILU PHARMACEUTICAL CO., LTD., priority 2020, published 2024)
